{"source": "patent US20220211752A1", "about": "“METHIONINE AND CYSTEINE DEPRIVATION DIET AND FORMULATIONS TO INCREASE EFFECTIVENESS OF CANCER THERAPY” (THE TRUSTEES OF COLUMBIA UNIVERSITY IN THE CITY OF NEW YORK, priority 2020, published 2022)", "key": {"MG1 cells [1]": {"tested_on": "MG1 cells", "test": "Dose-response of MG1 cells to RSL3 plus cell death inhibitors", "format": "cell-based, mouse", "settings": "5 uM ZVAD-FMK; 2 uM Nec-1s", "description": "(§1) Cell viability was assessed using the Cell-Titer^Glo™ luminescence assay. Murine glioma cells were plated in triplicate at a density of 6,000 cells per well in a 96-well plate (ThermoFisher Scientific™). Twenty-four hours after plating, media was removed and treatment media was added. Viability was assessed 24 hours after treatment. Human glioma cells were plated at a density of 2,000 cells per well. Cells were plated in normal media or cysteine/methionine deprived media. Twenty-four hours after plating, media was changed to begin drug treatment. Forty-eight hours after plating, luminescence was measured.\n(§2) Averages across 3 independent experiments are reported. For experiments conducted in 384-well plates, mouse glioma cells were plated at a density of 1,600 cells per well and human glioma cells were plated at a density of 1,000 cells per well. The assays as described above were quantified using Cell-Titer Glo™ (Promega™) ATP based bioluminescence. To determine cell viability, a 50% Cell Titer Glo™ and 50% cell culture medium was added to each well and incubated at room temperature for 10 minutes. Luminescence was assessed on a Promega™ GloMax™ Microplate Reader."}, "MG3 cells": {"tested_on": "MG3 cells", "test": "384-well dose-response to GPX4 inhibitors with or without CMD", "format": "cell-based, mouse", "settings": "dose response assays, with or without 2 uM Ferrostatin-1", "description": "as §1, §2"}, "MG4 cells": {"tested_on": "MG4 cells", "test": "Bodipy-C11 flow cytometry, radiation plus CMD", "format": "cell-based, mouse", "settings": "Ferrostatin-1", "excerpt": "(§3) Adherent cells were lifted using TrypLE (ThermoFisher™ Scientific).\nRadiation is a known ferroptosis inducer. […] Treatment of both mouse glioma cells (MG1 and MG4) and human GBM cells (TS543) is shown."}, "mouse glioma cell lines": {"tested_on": "mouse glioma cell lines", "test": "Dose response cell viability, IKE with or without CMD", "format": "cell-based", "settings": "10 uM Ferrostatin-1", "excerpt": "(§4) A basis for the invention that depriving glioma cells of sulfur containing amino acids (cystine and methionine) will result in lower levels of glutathione (which normally protects cells from lipid peroxidation) and therefore would sensitize the glioma cells to ferroptosis inducing drugs. […] Both these effects were rescued by ferrostatin."}, "MG1 cells [2]": {"tested_on": "MG1 cells", "test": "Bodipy-C11 flow cytometry, IKE with or without CMD", "format": "cell-based, mouse", "settings": "10 uM Ferrostatin-1", "excerpt": "as §3, §4"}, "MG1 cells [3]": {"tested_on": "MG1 cells", "test": "Live cell confocal microscopy of Bodipy-C11 lipid peroxidation", "format": "cell-based, mouse", "description": "1.3×10^5 MG1 cells were plated on poly-L-lysine coated 35 mm glass-bottom dishes (MatTek™ life sciences) for 24 hours. Cells were incubated for 30 minutes in basal media (DMEM (Gibco™ 11965092) with 0.5% FBS (Gibco™ 16000044), antibiotic-antimycotic (Thermo Scientific™ 15240096), N2 supplement (Thermo Fisher Scientific™, 17502-048), and 10 ng/ml each of recombinant human PDGF-AA (Peprotech, 100-13A) and FGFb (Peprotech™. 10018B50UG)) media containing 5 μM BODIPY-C11. Media were replaced with fresh basal media and cells were imaged on a Nikon™ A1RMP confocal microscope at 37° C. in a humidified chamber with 5% C02. Time-lapse images were acquired using a 40×/1.3 NA oil immersion objective and focus was maintained using the Perfect Focus™ System. Excitation was achieved using 488 nm and 561 nm laser illumination; emission of the oxidized and reduced forms of BODIPY-C11 was captured using a 525/50 and a 595/50 filter, respectively. At time 0, RSL3 (500 nM) or RSL3 (500 nM)+Ferrostatin (2 μM) were added and images were acquired every 30 seconds for a total of 30 minutes. Images were exported to ImageJ™ for analysis."}, "[4]": {"tested_on": "human diffuse astrocytoma slice culture", "test": "H2DCFDA flow cytometry of human glioma slice cultures, IKE plus radiation", "format": "cell-based", "settings": "10 μM IKE, 0 or 2 Gy radiation for 24 hours", "excerpt": "To further understand the translational relevance of these findings to human glioma samples, an acute organotypic slice culture model was used. […] The tissue was placed on a Millicell™ cell culture insert in treatment media. This media comprised of DMEM+ Hams-F12 without cysteine or methionine (MyBioSource, MBS652871) or DMEM+ Hams-F12 with cysteine and methione to create the to varied conditions that would undergo radiation or IKE treatment.\nHorizontal bars indicate H2DCFDA-positive cell populations."}, "[5]": {"tested_on": "human primary glioblastoma", "test": "H2DCFDA flow cytometry of ex vivo organotypic slice cultures, RSL3 with or without CMD", "format": "cell-based", "settings": "100 nM RSL3 plus CMD", "description": "Mice were sacrificed by cervical dislocation.\nSlice cultures were dissociated in papain (9.5 mL DPBS, 500 μL papain, 1.67 μL 6 M NaOH, 2 mg L-cysteine, 100 μL DNAse) and incubated in a warm bath shaker at 37° C. for 30 minutes. After centrifugation at 400×g for 5 minutes, the papain was aspirated and slices were resuspended in ice cold PBS and triturated with glass tip Pasteur pipettes. This process was repeated one time and then the cell suspension was resuspended in a 30% sucrose solution and spun at 1000×g for 5 minutes. The cell suspension was resuspended in PBS and stained with Calcein Blue (final concentration 5 μM) and H2DCFDA (final concentration 10 μM), incubated in a water bath at 37° C. for 10 minutes. Suspensions were spun down at 500×g for 5 minutes and resuspended in PBS and taken for flow cytometric analysis on a LSRIII Fortessa™ machine. Cell and Slice culture suspensions were filtered in polystyrene flow tubes (Fisher Scientific™). Data were collected on an LSRIII Fortessa™ flow analyzer and analyzed using FlowJo™ v10.\nThe slices were treated with RSL3 and assayed via flow cytometry for levels of reactive oxygen species (ROS) using H2DCFDA."}, "glioma cell lines": {"tested_on": "glioma cell lines", "test": "Cell viability dose-response to RSL3 (Cell-Titer Glo)", "format": "cell-based, mouse, human", "description": "as §1, §2\nTo test this, media was adapted for cell culture based on the previous ferroptosis permissive glioma culture methods. […]"}}, "note": "Peptide text beside a SMILES is read from it. * marks the point of attachment. Cbz = O=C(OCc1ccccc1)*; CH2F = FC*", "data": [{"compound": "COC(=O)C[C@H](NC(=O)[C@H](C)NC(=O)[C@@H](NC(=O)OCc1ccccc1)C(C)C)C(=O)CF", "note": "[ZVAD-FMK] (Cbz-Val-Ala-Asp(OMe)-CH2F)", "values": [{"measurement": "rescue of RSL3 mediated cell death", "setting": "MG1 cells [1]", "value": "not rescuable"}]}, {"compound": "Cc1onc(C(=O)N2CCN(C(c3ccc(Cl)cc3)c3ccc(Cl)cc3)CC2)c1[N+](=O)[O-]", "note": "[ML-210]", "values": [{"measurement": "ferroptosis in combination with CMD", "setting": "MG3 cells", "value": "synergistic enhancement of ferroptosis with CMD"}]}, {"compound": "CN1C(=O)NC(Cc2c[nH]c3c(Cl)cccc23)C1=O", "note": "(stereo not shown) [Nec-1s]", "values": [{"measurement": "rescue of RSL3 mediated cell death", "setting": "MG1 cells [1]", "value": "not rescuable"}]}, {"compound": "CCOC(=O)c1ccc(NC2CCCCC2)c(N)c1", "note": "[Ferrostatin-1]", "values": [{"measurement": "rescue of lipid peroxidation from radiation plus CMD", "setting": "MG4 cells", "value": "complete rescue"}, {"measurement": "rescue of CMD enhanced IKE induced cell death", "setting": "mouse glioma cell lines", "value": "rescued"}, {"measurement": "rescue of CMD plus IKE lipid peroxidation", "setting": "MG1 cells [2]", "value": "rescued"}, {"measurement": "effect on RSL3 induced lipid peroxidation", "setting": "MG1 cells [3]; 500 nM RSL3 and 2 uM Ferrostatin-1", "value": "prevented this lipid peroxidation"}]}, {"compound": "CC(C)Oc1ccc(C(=O)Cn2ccnc2)cc1-n1c(CN2CCN(C(=O)COc3ccc(Cl)cc3)CC2)nc2ccccc2c1=O", "note": "[IKE, imidazole ketone erastin]", "values": [{"measurement": "H2DCFDA-positive cells, interaction with radiation", "setting": "[4]", "value": "synergy of radiation with IKE treatment"}]}, {"compound": "COC(=O)c1ccc([C@@H]2c3[nH]c4ccccc4c3C[C@@H](C(=O)OC)N2C(=O)CCl)cc1", "note": "[RSL3]", "values": [{"measurement": "reactive oxygen species (ROS) levels, H2DCFDA", "setting": "[5]", "value": "increased ROS to levels equivalent to a high dose of RSL3 (500 nM)"}, {"measurement": "cell viability with CMD plus RSL3", "setting": "glioma cell lines; dose response curves, dual treatment (FIG. 30)", "value": "stark difference in cell viability with dual treatment"}, {"measurement": "sensitivity to ferroptosis by RSL3", "setting": "glioma cell lines; five cell lines assayed, 384-well dose-response", "value": "baseline sensitivity to ferroptosis"}, {"measurement": "ferroptosis in combination with CMD", "setting": "MG3 cells", "value": "synergistic enhancement of ferroptosis with CMD"}, {"measurement": "lipid peroxidation (Bodipy-C11 green fluorescence shift)", "setting": "MG1 cells [3]; 500 nM RSL3", "value": "induction of lipid peroxidation"}]}]}
